In ChEMBL document CHEMBL1129008, “Novel 1, 2, 4-oxadiazoles as potent and selective histamine H3 receptor antagonists” (Bioorg Med Chem Lett, 1996):

Legend:
[1] = molecular target: Histamine H3 receptor (Cavia porcellus) (UniProt Q9JI35); test: Antagonistic activity at H3 receptor was assessed on guinea-pig longitudinal muscle strips subjected to electrical field stimulation; type: functional
Histamine H3 receptor = Histamine H3 receptor (Rattus norvegicus, UniProt Q9QYN8); test: Binding affinity against H3 receptor in rat cerebral cortex membranes was evaluated using [3H]N-methyl-histamine as radioligand; type: cell membranes, Membrane
Rattus norvegicus [2] = test: Compound was tested in vivo for (R)-alpha- methyl-histamine induced dipsogenicity in rats, upon subcutaneous administration; type: functional; details: sc
Rattus norvegicus [3] = test: Antagonism of ex vivo binding to rat cortex/hippocampus was determined using [3H]-N-alpha-Methylhistamine, after subcutaneous administration; type: functional; details: sc
Rattus norvegicus [4] = test: Antagonism of ex vivo binding to rat cortex/hippocampus was determined using [3H]-N-alpha-Methylhistamine, after peroral administration; type: functional; details: po
[5] = molecular target: Histamine H1 receptor (Cavia porcellus) (UniProt P31389); test: Antagonistic activity against H1 receptor was determined in histamine induced contractions of guinea pig isolated whole ileum; type: functional, tissue-based
Rattus norvegicus [6] = test: Compound was tested in vivo for (R)-alpha- methyl-histamine induced dipsogenicity in rats, upon peroral administration; type: functional; details: po
[7] = molecular target: Histamine H2 receptor (Cavia porcellus) (UniProt P47747); test: Antagonistic activity at H2 receptor was assessed against histamine-induced tachycardia in guinea pig isolated atria; type: functional
Chain of Histamine H2 receptor (Cavia porcellus) (P47747 whole entry): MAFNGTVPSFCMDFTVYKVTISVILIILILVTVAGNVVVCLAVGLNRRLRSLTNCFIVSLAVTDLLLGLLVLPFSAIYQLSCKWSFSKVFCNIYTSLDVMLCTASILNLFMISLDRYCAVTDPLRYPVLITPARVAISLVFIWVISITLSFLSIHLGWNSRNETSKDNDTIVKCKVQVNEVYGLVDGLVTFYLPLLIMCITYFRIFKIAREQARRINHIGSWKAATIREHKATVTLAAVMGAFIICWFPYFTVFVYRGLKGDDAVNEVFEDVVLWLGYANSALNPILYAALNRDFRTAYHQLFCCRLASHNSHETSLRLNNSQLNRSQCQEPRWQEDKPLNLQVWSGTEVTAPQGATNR

Chain of Histamine H1 receptor (Cavia porcellus) (P31389 whole entry): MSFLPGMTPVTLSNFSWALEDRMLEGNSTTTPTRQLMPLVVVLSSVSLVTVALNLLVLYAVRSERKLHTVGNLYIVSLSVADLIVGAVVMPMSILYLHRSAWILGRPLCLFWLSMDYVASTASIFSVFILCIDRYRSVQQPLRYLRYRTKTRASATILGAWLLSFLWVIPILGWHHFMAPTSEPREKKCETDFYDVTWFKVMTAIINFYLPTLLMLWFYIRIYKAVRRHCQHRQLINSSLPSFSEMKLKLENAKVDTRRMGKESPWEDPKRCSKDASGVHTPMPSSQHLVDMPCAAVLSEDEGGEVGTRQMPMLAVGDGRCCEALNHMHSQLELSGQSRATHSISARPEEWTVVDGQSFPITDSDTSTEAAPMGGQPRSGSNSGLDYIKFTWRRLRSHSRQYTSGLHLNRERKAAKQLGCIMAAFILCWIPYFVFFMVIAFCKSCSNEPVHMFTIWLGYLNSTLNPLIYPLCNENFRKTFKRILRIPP
Chain of Histamine H3 receptor (Cavia porcellus) (Q9JI35 whole entry): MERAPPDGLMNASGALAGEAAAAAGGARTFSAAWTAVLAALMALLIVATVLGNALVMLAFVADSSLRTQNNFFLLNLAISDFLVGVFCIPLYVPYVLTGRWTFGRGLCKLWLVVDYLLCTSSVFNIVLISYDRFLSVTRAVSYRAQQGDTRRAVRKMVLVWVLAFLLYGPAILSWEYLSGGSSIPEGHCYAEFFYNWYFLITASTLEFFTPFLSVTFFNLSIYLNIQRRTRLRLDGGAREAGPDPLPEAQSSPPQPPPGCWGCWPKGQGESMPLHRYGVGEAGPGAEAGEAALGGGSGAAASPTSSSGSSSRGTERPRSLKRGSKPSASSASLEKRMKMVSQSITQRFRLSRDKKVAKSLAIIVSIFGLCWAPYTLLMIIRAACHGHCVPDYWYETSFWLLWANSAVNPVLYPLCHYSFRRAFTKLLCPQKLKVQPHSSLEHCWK
Chain of Histamine H3 receptor (Q9QYN8 whole entry): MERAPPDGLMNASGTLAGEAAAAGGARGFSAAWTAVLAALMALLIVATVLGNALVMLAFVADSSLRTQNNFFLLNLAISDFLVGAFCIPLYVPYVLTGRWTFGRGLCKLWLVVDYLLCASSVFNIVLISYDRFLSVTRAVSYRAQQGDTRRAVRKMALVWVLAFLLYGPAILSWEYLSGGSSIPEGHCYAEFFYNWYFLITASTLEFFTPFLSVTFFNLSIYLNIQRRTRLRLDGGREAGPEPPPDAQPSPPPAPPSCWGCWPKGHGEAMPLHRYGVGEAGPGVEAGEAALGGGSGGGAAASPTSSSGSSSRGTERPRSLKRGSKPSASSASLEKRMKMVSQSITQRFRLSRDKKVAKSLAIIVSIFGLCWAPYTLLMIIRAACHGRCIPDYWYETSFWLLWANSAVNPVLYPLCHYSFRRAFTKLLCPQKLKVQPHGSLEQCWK

Row | Structure (SMILES) | pKB [1] | Ki (Histamine H3 receptor) [nM] | other results
1 | Clc1ccc(Cc2noc(CCc3c[nH]cn3)n2)cc1Cl | 8 | 3.16 | –
2 | Ic1ccc(Cc2noc(CCc3c[nH]cn3)n2)cc1 | 7.1 | 6.31 | –
3 | Clc1ccc(Cc2noc(CCc3c[nH]cn3)n2)cc1 [GR-175737] | – | – | ED50 (Rattus norvegicus [2]): 1 mg/kg; ED50 (Rattus norvegicus [3]): 1.4 mg/kg; ED50 (Rattus norvegicus [4]): 1.2 mg/kg
4 | S=C(NC1CCCCC1)N1CCC(c2cnc[nH]2)CC1 [THIOPERAMIDE] | 8.3 | – | ED50 (Rattus norvegicus [2]): 0.8 mg/kg; pKB [5]: < 5; ED50 (Rattus norvegicus [6]): 0.8 mg/kg; pKB [7]: < 5; ED50 (Rattus norvegicus [3]): 5.1 mg/kg; ED50 (Rattus norvegicus [4]): 6 mg/kg
5 | Clc1ccc(Cc2nc(CCc3c[nH]cn3)no2)cc1 | 7 | 20 | pKB [7]: 5.6
6 | CS(=O)(=O)c1ccc(Cc2noc(CCc3c[nH]cn3)n2)cc1 | – | 316 | –
7 | Clc1ccc(Cc2csc(CCc3c[nH]cn3)n2)cc1 | 7.3 | 200 | –
8 | COc1ccc(Cc2noc(CCc3c[nH]cn3)n2)cc1 | 6.5 | 39.8 | –
9 | Clc1ccc(Cc2nnc(CCc3c[nH]cn3)s2)cc1 | 7 | 100 | pKB [7]: 5.8
10 | Clc1ccc(Cc2noc(Cc3c[nH]cn3)n2)cc1 | 7.2 | 25.1 | –
11 | Clc1ccc(Cc2n[nH]c(CCc3c[nH]cn3)n2)cc1 | 5.7 | 200 | –
12 | N=C(NCc1ccc(Cl)cc1)SCCCc1c[nH]cn1 [CLOBENPROPIT] | 9.9 | – | ED50 (Rattus norvegicus [2]): 1.3 mg/kg; pKB [5]: < 6; ED50 (Rattus norvegicus [6]): 2.4 mg/kg; pKB [7]: < 6; ED50 (Rattus norvegicus [3]): 10.5 mg/kg; ED50 (Rattus norvegicus [4]): > 30 mg/kg
13 | Clc1ccc(CCc2noc(CCc3c[nH]cn3)n2)cc1 | 7.7 | 20 | pKB [5]: < 5; pKB [7]: < 5
14 | c1ccc(-c2ccc(Cc3noc(CCc4c[nH]cn4)n3)cc2)cc1 | 6.6 | 63.1 | –
15 | FC(F)(F)c1ccc(Cc2noc(CCc3c[nH]cn3)n2)cc1 | 8.3 | 7.94 | –
16 | C[S+]([O-])c1ccc(Cc2noc(CCc3c[nH]cn3)n2)cc1 (stereo not given) | – | 2510 | –
17 | CS(=O)(=O)Nc1ccc(Cc2noc(CCc3c[nH]cn3)n2)cc1 | – | 1260 | –
18 | Clc1ccc(CCc2noc(Cc3c[nH]cn3)n2)cc1 | – | 251 | –
19 | Clc1ccc(Cc2n[nH]c(CCCc3c[nH]cn3)n2)cc1 | 7.4 | 12.6 | pKB [5]: < 5; pKB [7]: < 5
20 | CSc1ccc(Cc2noc(CCc3c[nH]cn3)n2)cc1 | – | 25.1 | –
21 | Clc1ccc(Cc2noc(CCCc3c[nH]cn3)n2)cc1 | 6.8 | – | pKB [5]: < 5; pKB [7]: < 5
22 | Fc1ccc(Cc2noc(CCc3c[nH]cn3)n2)cc1 | 8.4 | 10 | –
23 | Cn1nc(CCc2c[nH]cn2)nc1Cc1ccc(Cl)cc1 | 5.8 | 126 | –
24 | Clc1ccc(Cc2noc(CCCc3cnc[nH]3)n2)cc1 | – | 25.1 | –
